Reference: paper PMC4556614 (PLoS ONE, 2015)

Tests used:
OCT2 [1] = target: T1, OCT2 (Homo sapiens, UniProt O15244); assay: Inhibition of OCT2-mediated [3H]MPP+ uptake in HEK-OCT2 cells; details: for % Inhibition of OCT2-dependent MPP+ uptake at 20 µM (mean ± SEM): test drug 20 µM
OCT2 [2] = system: OCT2; design: method as in earlier work; details: drug 20 μM; HEK 293 cells overexpressing OCT2; ref 7 (Kido et al.); cited from earlier work
[3] = ref 16 (Regenthal et al.), cited from earlier work; for Cmax,u: Cmax of unbound drug in humans; for Cmax: maximum steady-state plasma concentration in humans
OCT2 [4] = target: T1, OCT2; assay: in vitro; details: for % Inhibition of OCT2-dependent MF uptake at 200 µM (mean ± SEM) / IC50 / % Inhibition of OCT2-dependent MF uptake at 20 µM (mean ± SEM): human, pH 7.3; for IC50 values, OCT2-mediated metformin transport (in words): potent inhibitors, confirmed previous findings [19]-[21]
[5] = cited from earlier work
OCT2 [6] = target: T1, OCT2; assay: Time-dependent substrate uptake into HEK-OCT2 and vector control cells; format: cell-based; design: expressed in transfected cells; host or cells: HEK 293 cells, stably transfected (HEK-OCT2); vector control HEK-VC; details: metformin 1000 μM; for Time until OCT2-mediated uptake reached steady-state: HEK-OCT2 cells
Method: For the transport assays HEK cell lines stably transfected with human OCT2 (HEK-OCT2) or the vector only (HEK-VC) were used. The HEK-OCT2 cell line was established and characterized previously. HEK-OCT2 and HEK-VC cells were seeded in poly-D-lysine (Sigma Aldrich, Taufkirchen, Germany) coated 48-well-plates at a density of 1.2 x 10^5 cells/well. […] In a total incubation volume of 125 μL the final concentrations of the test drugs were 20 or 200 μM. […] Uptake was stopped by washing the cells three times with ice-cold uptake buffer. Afterwards, cells were lysed with 5 mM Tris buffer (pH 7.3) containing 0.1% Triton X-100. The intracellular accumulation of radioactivity was determined by liquid scintillation counting (PerkinElmer, Rodgau-Jügesheim, Germany) and protein concentration of each lysate was measured with bicinchonic acid assay (BCA Protein Assay Kit, Thermo Fisher Scientific, Waltham, MA, USA). We performed two to eight experiments each on at least two separate days, i.e., n = 4–16. […] The percentage of uptake inhibition was calculated as: Inhibition (%) = 100 –(V / V 0 * 100), where V and V 0 are the net uptake rates with and without test drug.
Data are presented as the mean ± standard error (4–8 experiments each on two to four separate days, i.e., n = 8–29).

OCT2 [7] = details: cited from earlier work
[8] = MPP+ 50 μM, 3 min, net uptake HEK-OCT2 minus HEK-VC
[9] = test drug 200 µM, MPP+ 50 μM, 3 min, net uptake HEK-OCT2 minus HEK-VC
[10] = coadministration of lansoprazole
[11] = coadministration with pantoprazole

T1 sequence (O15244 whole entry): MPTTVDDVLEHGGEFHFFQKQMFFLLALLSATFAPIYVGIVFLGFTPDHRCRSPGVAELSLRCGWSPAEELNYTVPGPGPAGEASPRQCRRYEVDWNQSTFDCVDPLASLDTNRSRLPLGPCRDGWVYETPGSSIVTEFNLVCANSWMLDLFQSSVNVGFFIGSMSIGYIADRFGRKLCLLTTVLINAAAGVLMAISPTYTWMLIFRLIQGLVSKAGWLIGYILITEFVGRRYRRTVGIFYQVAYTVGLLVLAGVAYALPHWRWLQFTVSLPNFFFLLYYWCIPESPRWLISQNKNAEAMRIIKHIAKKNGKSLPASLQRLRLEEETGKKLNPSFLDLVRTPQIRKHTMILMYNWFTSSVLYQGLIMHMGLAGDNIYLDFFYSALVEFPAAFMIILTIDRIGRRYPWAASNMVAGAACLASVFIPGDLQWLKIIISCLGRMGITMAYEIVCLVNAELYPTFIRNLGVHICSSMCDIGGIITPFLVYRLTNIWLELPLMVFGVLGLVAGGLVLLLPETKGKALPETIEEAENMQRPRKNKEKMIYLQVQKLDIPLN

| Compound | % Inhibition of OCT2-dependent MPP+ uptake at 20 µM (mean ± SEM) (OCT2 [1]; [8]) [%] | % Inhibition of OCT2-dependent MPP+ uptake at 200 µM (mean ± SEM) (OCT2 [1]; [9]) [%] | Inhibition of OCT2-mediated ASP+ uptake (OCT2 [2]) | Cmax,u [3] [nM] | Cmax [3] [nM] | % Inhibition of OCT2-dependent MF uptake at 200 µM (mean ± SEM) (OCT2 [4]) | IC50 (OCT2 [4]) [nM] | also measured |
| --- | --- | --- | --- | --- | --- | --- | --- | --- |
| CC(CN(C)C)CN1c2ccccc2CCc2ccccc21 (stereo not drawn) [Trimipramine] | 51.0 ± 10.2 | 98.6 ± 1.2 | more than 50% | 60 | 610 | 100.0 ± 0.8 | 440 | % Inhibition of OCT2-dependent MPP+ uptake at 20 µM (mean ± SEM) (OCT2 [1]; MPP+ 50 μM, 3 min, net uptake HEK-OCT2 minus HEK-VC, listed as trimipramine): more than 50% |
| N[C@@H](CC(=O)N1CCn2c(nnc2C(F)(F)F)C1)Cc1cc(F)c(F)cc1F [Sitagliptin] | -8.2 ± 7.8 | 22.7 ± 6.0 | – | 1500 | 2300 | 97.5 ± 0.1 | 7410 | Effect on steady-state pharmacokinetics of either agent ([5]; co-administration of sitagliptin and metformin, patients with type 2 diabetes): did not meaningfully alter; % Inhibition of OCT2-dependent MF uptake at 20 µM (mean ± SEM) (OCT2 [4]): 85.9 ± 1.1; IC50 values, OCT2-mediated metformin transport (in words) (OCT2 [4]): low micromolar range |
| CN(C)C(=N)N=C(N)N [Metformin] | – | – | – | – | – | – | – | Time until OCT2-mediated uptake reached steady-state (OCT2 [6]; MPP+ 50 μM): approximately 15 min; Uptake of metformin in vector control cells (OCT2 [6]; 3 min, HEK-VC, no inhibitor): 227 ± 22.1 pmol/mg/min; Uptake of metformin in HEK-OCT2 cells (OCT2 [6]; 3 min, no inhibitor): 5946 ± 294.0 pmol/mg/min |
| CN(C)CCC=C1c2ccccc2CCc2ccccc21 [Amitriptyline] | 58.4 ± 2.8 | 97.8 ± 0.6 | more than 50% | 40 | 1100 | 101.7 ± 2.2% | 510 | % Inhibition of OCT2-dependent MPP+ uptake at 20 µM (mean ± SEM) (OCT2 [1]; MPP+ 50 μM, 3 min, net uptake HEK-OCT2 minus HEK-VC, listed as amitriptyline): more than 50%; Cmax,u / IC50 (OCT2 [4]): 0.08; IC50 values, OCT2-mediated metformin transport (in words) (OCT2 [4]): low micromolar range |
| O=C(O[C@H]1C[C@H]2CC[C@@H](C1)[N+]21CCCC1)C(O)(c1ccccc1)c1ccccc1 [Trospium chloride] | 83.2 ± 2.2 | 96.7 ± 0.7 | – | 10 | 30 | 98.8 ± 0.4 | 70 | Effect on metformin renal clearance and steady-state pharmacokinetics ([5]; trospium chloride coadministration, healthy volunteers): did not alter |
| C[n+]1ccc(-c2ccccc2)cc1 [MPP^+, 1-methyl-4-phenylpyridinium] | – | – | – | – | – | – | – | Uptake ratio OCT2 cells vs. vector control cells (OCT2 [6]; MPP+ 50 μM, 3 min, no inhibitor): 3.2; Time until OCT2-mediated uptake reached steady-state (OCT2 [6]; MPP+ 50 μM): approximately 15 min |
| Cc1c(OCC(F)(F)F)ccnc1C[S+]([O-])c1nc2ccccc2[nH]1 (stereo not drawn) [Lansoprazole] | 22.1 ± 5.3 | 90.1 ± 1.8 | – | 1200 | 6000 | 103.0 ± 2.7 | 3280 | Decrease of metformin renal clearance [5, 10]: 13%; Increase of AUC of metformin [5, 10]: 17%; Increase of Cmax of metformin [5, 10]: 15%; % Inhibition of OCT2-dependent MF uptake at 20 µM (mean ± SEM) (OCT2 [4]): 87.7 ± 1.6; IC50 values, OCT2-mediated metformin transport (in words) (OCT2 [4]): low micromolar range |
| CN(C)CCC=C1c2ccccc2COc2ccccc21 [Doxepin] | – | – | more than 50% | 250 | 1300 | 99.3 ± 0.7 | 250 | – |
| COc1ccc2[nH]c([S+]([O-])Cc3ncc(C)c(OC)c3C)nc2c1 (stereo not drawn) [Omeprazole] | 56.0 ± 4.0 | 93.0 ± 0.9 | more than 50% | – | – | 107.4 ± 4.3 | – | % Inhibition of OCT2-dependent MPP+ uptake at 20 µM (mean ± SEM) (OCT2 [1]; MPP+ 50 μM, 3 min, net uptake HEK-OCT2 minus HEK-VC, listed as omeprazole): more than 50%; IC50 values, OCT2-mediated metformin transport (in words) (OCT2 [4]): low micromolar range |
| CCCc1nc2c(C)cc(-c3nc4ccccc4n3C)cc2n1Cc1ccc(-c2ccccc2C(=O)O)cc1 [Telmisartan] | – | – | more than 50% | – | – | 99.2 ± 0.2 | – | % Inhibition of OCT2-dependent MPP+ uptake at 200 µM (mean ± SEM) (OCT2 [1]; human, pH 7.3): 93.3 ± 2.8 |
| COc1ccnc(C[S+]([O-])c2nc3ccc(OC(F)F)cc3[nH]2)c1OC (stereo not drawn) [Pantoprazole] | – | – | – | 230 | 11400 | 98.9 ± 0.6 | 560 | AUC for metformin greater following coadministration [5, 11]: 15%; Cmax for metformin greater following coadministration [5, 11]: 15%; % Inhibition of OCT2-dependent MPP+ uptake at 200 µM (mean ± SEM) (OCT2 [1]; human, pH 7.3): 101.7 ± 4.4 |
| CN(C)CCCN1c2ccccc2CCc2ccc(Cl)cc21 [Clomipramine] | 90.3 ± 1.5 | 98.8 ± 3.0 | more than 50% | – | – | 99.5 ± 3.7 | – | – |
| CC(=O)S[C@@H]1CC2=CC(=O)CC[C@]2(C)[C@H]2CC[C@@]3(C)[C@@H](CC[C@@]34CCC(=O)O4)[C@H]12 [Spironolactone] | 33.5 ± 4.7 | 95.0 ± 0.5 | – | 20 | 1200 | 98.4 ± 1.0 | 1290 | Cmax,u / IC50 (OCT2 [4]): 0.02 |
| CN/C(=N/CCSCc1nc[nH]c1C)NC#N [Cimetidine] | – | – | – | – | – | – | – | Affinity for MATEs compared with OCT2 (OCT2 [7]): higher affinity for MATEs than for OCT2; Inhibitor of OCT2 (in words) (OCT2 [7]): rather weak inhibitor |
